{"source": "paper PMC12801355", "about": "“Peptide Amphiphiles Hitchhike on Endogenous Biomolecules for Enhanced Cancer Imaging and Therapy” (Advanced Materials (Deerfield Beach, Fla.), 2025)", "key": {"[1]": {"test": "TEM imaging of PA nanostructures", "format": "physicochemical", "settings": "ICG conjugated PA, 200 µM in ultrapure water, uranyl acetate negative stain", "method": "For TEM imaging, PAs conjugated with ICG, Cy5 or MMAE were dissolved in ultrapure water at a concentration of 200 µM. Carbonfilm 200 copper mesh TEM grids were glow‐discharged first. Then, PA solutions (15 µL) were placed on the grids, incubated for 10 min before blotting, and air‐dried. 15 µL of ultrapure water was applied to wash the grid for 3 min. After incubation, the water was removed by blotting from the edge of the grid. For negative staining of the samples, a 0.4% uranyl acetate solution was prepared in ultrapure water and filtered using a 0.1 µm syringe filter. 15 µL of filtered uranyl acetate solution was applied to the grid and incubated for 5 min. Finally, TEM grids were blotted to remove excess stain and dried at room temperature. TEM imaging was performed using a Tecnai or Talos microscope (FEI)."}, "[2]": {"tested_on": "4T1 cells", "test": "Uptake of SA‐E in the presence of inhibitors", "format": "cell-based, mouse", "settings": "inhibitor 10 µM, 20 min pre‐incubation, Cy5 SA‐E 20 µM, FBS free media", "method": "To explore the effect of serum proteins and different inhibitors on the cellular uptake of SA‐E, 4T1 cells were grown to near confluency in 96 well plates, as described above. For cellular uptake mechanism studies, the growth media (RPMI containing 10% FBS) was exchanged for 100 µL of FBS free media, then returned to the incubator. Inhibitors (brefeldin A, bromsulphalein, chlorpromazine hydrochloride, cis‐ACBD, filipin, heparin, methyl‐β‐cyclodextrin, or wortmannin) were made in FBS free media at a concentration of 1 mM. Then, 1 µL of media containing inhibitors was added to wells, so that the final drug concentration in each well was 10 µM. The plate was returned to the incubator for 20 min. After incubation, Cy5 conjugated SA‐E was added to all wells such that the final concentration was 20 µM per well. The plate was returned to the incubator for 30 min. Wells were aspirated and washed with PBS as above. 100 µL of FBS free media was added, and the plate was returned to the incubator for 1 h. Finally, Hoechst staining and fluorescence imaging were performed using a Leica Thunder DMi8 fluorescent microscope, as described above."}, "[3]": {"tested_on": "4T1 tumor", "test": "Tumor accumulation, live IVIS imaging", "format": "in vivo, mouse", "method": "For tumor accumulation studies in subcutaneous (HCT‐116, A375, TRAMP‐C2, MC38, LLC1, RG2, PDX cell lines, wild type or SR‐B1 ‐/‐ TRAMP‐C2, and wild type or LDL‐R ‐/‐ HeLa), intradermal (A375), or fat pad (4T1 and MCF‐7) tumors, cells were implanted as described above. When the tumors reached a size around ≈0.3–1 cm, mice were injected intravenously with 100 µL of ICG conjugated PAs (in PBS, 0.5 mM) or free ICG (in PBS, 0.5 mM). After probe injections, mice were imaged using the IVIS Spectrum (PerkinElmer) with excitation and emission wavelengths of 745 and 820 nm, respectively, at the specified time points. Living Image (PerkinElmer) software was used for all analyses. For MMTV mice experiments, mice were injected intravenously weekly with SA‐E (100 µL PBS, 0.5 mM) between 71 and 85 days of age and imaged 2 days later in the IVIS. […] SA‐E was injected intravenously (100 µL PBS, 0.5 mM), 2 days later the intestinal tissue was harvested, washed, and analyzed in the IVIS for ICG."}, "[4]": {"test": "Fluorescence polarization of PA nanostructures", "format": "physicochemical", "settings": "10 mol% ICG conjugated PA (20 µM) with unconjugated PA, 200 µM total, PBS; mean ± SEM, 3 wells", "method": "ICG (10 mol%) containing PA micelles were prepared by mixing ICG‐conjugated PAs with unconjugated or MMAE‐conjugated PAs to achieve a final concentration of 20 µM ICG‐conjugated PAs and 200 µM of total PAs. Aliquots of 100 µL were added to a 96‐well plate (3 wells for each PA). Fluorescence polarization measurements were performed using a microplate reader (TECAN Spark 20 M). The corrected parallel intensity (I par) and perpendicular intensity (Iper) were used to calculate the fluorescence anisotropy (r) using the following equation: r = […]."}, "[5]": {"tested_on": "HeLa human cervical cancer cells", "test": "Uptake of SA‐E by wild type or LDL‐R knockout cells", "format": "cell-based", "settings": "Cy5 SA‐E 20 µM, 10% FBS DMEM", "method": "For LDL‐R studies, 2 × 10^5 wild type or LDL‐R‐/‐ HeLa human cervical cancer cells were grown to near confluency in 96 well plates with black walls and flat glass bottom. Cy5 conjugated SA‐E (20 µM) was preincubated in DMEM containing 10% FBS for 30 min at 37 °C. Wells were aspirated, and 100 µL of the SA‐E containing DMEM was added. The plate was incubated for 30 min, as above. The wells were washed with sterile PBS, as above, media was added, and the plate was returned to the incubator for 1 h. Wells were aspirated, and nuclei were stained with Hoechst as above. Wells were aspirated, and 100 µL of phenol red free DMEM with 10% FBS was added to each well. Cells were then imaged for Cy5 conjugated SA‐E with a Zeiss Apotome 3 microscope at 20x and 63x objectives using Zen software."}, "[6]": {"test": "ICG fluorescence in fractions of collected blood (plasma, WBC, RBC)", "format": "in vivo", "settings": "mouse blood 1 h after 50 nmol IV; average", "procedure": "For these experiments, 100 µL of ICG conjugated SA‐E (0.5 mM) was intravenously injected into wild type (C57Bl/6J), ApoA1 ‐/‐, or LDL‐R ‐/‐ mice. One hour after injection blood was collected via cardiac puncture (500 µL) in EDTA containing tubes (BD MicroTainer Blood Collection Tube, 365974). To separate plasma, blood samples were centrifuged for 10 min at 1500 g, and supernatants were removed. Samples were centrifuged again for 10 min at 2500 g, and supernatants were stored at −20 °C for up to 5 days before use. For RBCs, 10 µL of the centrifugation pellet was separated and stored at −20 °C for up to 5 days before analysis. For WBCs, 100 µL of the remaining pellet was collected and combined with 2 mL Red Blood Cell Lysis Buffer (BioLegend, 420514). This mixture was allowed to incubate at room temperature for 15 min with occasional mixing. The solution was then centrifuged at 500 g for 5 min, the supernatant was removed, and the pellet was redissolved in 30 µL PBS, then stored at −20 °C for up to 5 days. […] For fluorescence measurements, 5 µL of samples were added to a 96 well plate, diluted to a total volume of 100 µL with PBS, and fluorescence was measured using a microplate reader (Tecan Spark 20 M)."}, "[7]": {"settings": "4T1 tumor‐bearing mice, 50 nmol IV"}}, "note": "Where a SMILES comes first, the peptide text is derived from it. The star is where a group is joined. Palmitoyl = CCCCCCCCCCCCCCCC(=O)*"}
{"smiles": "CCCCCCCCCCCCCCCC(=O)NCC(=O)NCC(=O)NCC(=O)N[C@@H](Cc1c[nH]cn1)C(=O)N[C@@H](C)C(=O)N[C@@H](C)C(=O)N[C@@H](CC(N)=O)C(=O)NCC(=O)N[C@@H](CCC(=O)O)C(=O)N[C@@H](CCC(=O)O)C(=O)N[C@@H](CS)C(=O)N[C@@H](CCC(=O)O)C(=O)O", "note": "[SA‐E] (Palmitoyl-GGGHAANGEECE-OH)", "values": [{"measurement": "size of spherical micelles (TEM)", "setting": "[1]", "result": "5–10 nm"}, {"measurement": "cellular uptake with Filipin", "setting": "[2]", "result": "decreased SA‐E uptake to a lesser extent"}, {"measurement": "cellular uptake with Methyl‐β‐cyclodextrin", "setting": "[2]", "result": "Significant decreases"}, {"measurement": "cellular uptake with Wortmannin", "setting": "[2]", "result": "Significant decreases"}, {"measurement": "cellular uptake with bromosulfalein (BSP)", "setting": "[2]", "result": "no change"}, {"measurement": "cellular uptake with cis‐ACBD", "setting": "[2]", "result": "no change"}, {"measurement": "day of 50% decrease in the tumor signal", "setting": "[3]; [7]", "result": 3, "unit": "days"}, {"measurement": "retention of tumor signal", "setting": "[3]; [7]", "result": "still detectable levels even 2 weeks after injection"}, {"measurement": "time at which background signal was mostly cleared", "setting": "[3]; [7]", "result": 2, "unit": "days"}, {"measurement": "total tumor accumulation relative to No‐SA", "setting": "[3]; [7]", "result": "≈ 1.6 fold"}, {"measurement": "time of maximum tumor fluorescence", "setting": "[3]; 4T1 tumor‐bearing mice, ICG conjugated, 50 nmol IV", "result": 11, "unit": "h"}, {"measurement": "retention in the tumor", "setting": "[3]; biodistribution studies, summary in introduction", "result": "more than 2 weeks"}, {"measurement": "maximum TBR", "setting": "[3]; days 2 to 8, 50 nmol IV", "result": "5–6"}, {"measurement": "fluorescence anisotropy of ICG in micelles", "setting": "[4]", "result": "0.123 ± 0.006"}, {"measurement": "uptake in LDL‐R‐/‐ cells compared to wild type", "setting": "[5]", "result": "did not observe any significant change"}, {"measurement": "share of fluorescence in blood plasma", "setting": "[6]", "result": 98.9, "unit": "%"}]}
